Measurements taken from PubChem BioAssay AID248 (DTP/NCI, 2004).
Toxic doses and inconclusive results are not listed.

Test system: L1210 leukemia ip in BDF1 mice, survival T/C
Test: NCI In Vivo Anticancer Drug Screen. Data for tumor model L1210 Leukemia (intraperitoneal) in B6D2F1 (BDF1) mice
Settings: endpoint: mean survival time, higher = longer survival
Outline: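 Antitumor effect is assessed in tumor-bearing animals. Survival in the compound arm is compared with a vehicle-dosed control arm and expressed as their quotient.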

[1] = dose: 100.0 mg/kg/injection, schedule: Q04DX003 (ip), vehicle: saline with Tween-80
[2] = dose: 400.0 mg/kg/injection, schedule: Q04DX003 (ip), vehicle: saline with Tween-80
[3] = dose: 15.0 mg/kg/injection, schedule: Q01DX Z (ip), vehicle: saline
[4] = dose: 15.0 mg/kg/injection, schedule: Q01DX Z (oral), vehicle: saline
[5] = dose: 30.0 mg/kg/injection, schedule: Q01DX Z (oral), vehicle: saline
[6] = dose: 100.0 mg/kg/injection, schedule: Q01DX009 (ip), vehicle: Klucel (hydroxypropylcellulose) (HPC)
[7] = dose: 200.0 mg/kg/injection, schedule: Q01DX009 (ip), vehicle: Klucel (hydroxypropylcellulose) (HPC)
[8] = dose: 400.0 mg/kg/injection, schedule: Q01DX009 (ip), vehicle: Klucel (hydroxypropylcellulose) (HPC)
[9] = dose: 100.0 mg/kg/injection, schedule: Q01DX001 (ip), vehicle: saline
[10] = dose: 200.0 mg/kg/injection, schedule: Q01DX001 (ip), vehicle: saline
[11] = dose: 100.0 mg/kg/injection, schedule: Q04DX003 (ip), vehicle: saline
[12] = dose: 200.0 mg/kg/injection, schedule: Q04DX003 (ip), vehicle: saline
[13] = dose: 200.0 mg/kg/injection, schedule: Q04DX003 (ip), vehicle: saline with Tween-80
[14] = dose: 100.0 mg/kg/injection, schedule: Q01DX001 (ip), vehicle: Klucel (hydroxypropylcellulose) (HPC)
[15] = dose: 200.0 mg/kg/injection, schedule: Q01DX001 (ip), vehicle: Klucel (hydroxypropylcellulose) (HPC)

Structure (SMILES): COC(=O)CCC(=O)CCC(C)C
- T/C (dose: 100.0 mg/kg/injection, schedule: Q01DX009 (ip), vehicle: saline with Tween-80): 110 % of control
- T/C [1]: 103 % of control
- T/C (dose: 200.0 mg/kg/injection, schedule: Q01DX009 (ip), vehicle: saline with Tween-80): 92 % of control
- T/C (dose: 400.0 mg/kg/injection, schedule: Q01DX009 (ip), vehicle: saline with Tween-80): 101 % of control
- T/C [2]: 93 % of control

Structure (SMILES): CCCCCCCNC(=O)OCC
- T/C (dose: 55.0 mg/kg/injection, schedule: Q01DX Z (ip), vehicle: methylcellulose (MC)): 93 % of control
- T/C (dose: 83.0 mg/kg/injection, schedule: Q01DX Z (ip), vehicle: methylcellulose (MC)): 93 % of control
- T/C (dose: 125.0 mg/kg/injection, schedule: Q01DX Z (ip), vehicle: methylcellulose (MC)): 104 % of control

Structure (SMILES): CCCN=C(N)N=C(N)N
- T/C (dose: 50.0 mg/kg/injection, schedule: Q01DX009 (ip), vehicle: water): 108 % of control
- T/C (dose: 100.0 mg/kg/injection, schedule: Q01DX001 (ip), vehicle: water): 102 % of control
- T/C (dose: 100.0 mg/kg/injection, schedule: Q01DX009 (ip), vehicle: water): 95 % of control
- T/C (dose: 100.0 mg/kg/injection, schedule: Q04DX003 (ip), vehicle: water): 104 % of control
- T/C (dose: 200.0 mg/kg/injection, schedule: Q01DX001 (ip), vehicle: water): 102 % of control
- T/C (dose: 200.0 mg/kg/injection, schedule: Q04DX003 (ip), vehicle: water): 102 % of control
- T/C (dose: 400.0 mg/kg/injection, schedule: Q01DX001 (ip), vehicle: water): 102 % of control

Structure (SMILES): C=NN=C(N)N
- T/C (dose: 0.38 mg/kg/injection, schedule: Q01DX Z (ip), vehicle: saline): 100 % of control
- T/C (dose: 0.75 mg/kg/injection, schedule: Q01DX Z (ip), vehicle: saline): 92 % of control
- T/C (dose: 3.0 mg/kg/injection, schedule: Q01DX Z (ip), vehicle: saline): 87 % of control
- T/C (dose: 6.0 mg/kg/injection, schedule: Q01DX Z (ip), vehicle: saline): 106 % of control
- T/C (dose: 12.0 mg/kg/injection, schedule: Q01DX Z (ip), vehicle: saline): 102 % of control
- T/C [3]: 100 % of control
- T/C [4]: 86 % of control
- T/C (dose: 30.0 mg/kg/injection, schedule: Q01DX Z (ip), vehicle: saline): 105 % of control
- T/C [5]: 92 % of control

Structure (SMILES): CCCCCCCCCCCC(=O)Nc1cc(Cl)c(OC)cc1OC
- T/C [6]: 95 % of control
- T/C [7]: 92 % of control
- T/C [8]: 93 % of control

Structure (SMILES): [O-]/[N+](=C\c1ccccc1)c1ccccc1
- T/C (dose: 50.0 mg/kg/injection, schedule: Q01DX001 (ip), vehicle: saline): 110 % of control
- T/C [9]: 110 % of control
- T/C [10]: 108 % of control

Structure (SMILES): CCCCC(CC)CCC(O)CC(C)C (stereo not given)
- T/C (dose: 50.0 mg/kg/injection, schedule: Q04DX003 (ip), vehicle: Klucel (hydroxypropylcellulose) (HPC)): 91 % of control
- T/C [6]: 104 % of control
- T/C (dose: 100.0 mg/kg/injection, schedule: Q04DX003 (ip), vehicle: Klucel (hydroxypropylcellulose) (HPC)): 92 % of control
- T/C [7]: 101 % of control
- T/C (dose: 200.0 mg/kg/injection, schedule: Q04DX003 (ip), vehicle: Klucel (hydroxypropylcellulose) (HPC)): 97 % of control
- T/C [8]: 89 % of control
- T/C (dose: 400.0 mg/kg/injection, schedule: Q04DX003 (ip), vehicle: Klucel (hydroxypropylcellulose) (HPC)): 96 % of control

Structure (SMILES): c1ccc(-c2nnnn2C23CC4CC(CC(C4)C2)C3)cc1
- T/C [11]: 98 % of control
- T/C [12]: 100 % of control
- T/C (dose: 400.0 mg/kg/injection, schedule: Q04DX003 (ip), vehicle: saline): 98 % of control

Structure (SMILES): CCOC(=O)Nc1ccc(Cl)cc1Cl
- T/C [1]: 97 % of control
- T/C [13]: 105 % of control
- T/C [2]: 87 % of control

Structure (SMILES): N#CCC(=O)N1Cc2cc3ccccc3nc2C1
- T/C (dose: 100.0 mg/kg/injection, schedule: Q04DX003 (ip), vehicle: saline sonified): 115 % of control
- T/C (dose: 200.0 mg/kg/injection, schedule: Q04DX003 (ip), vehicle: saline sonified): 95 % of control
- T/C (dose: 400.0 mg/kg/injection, schedule: Q04DX003 (ip), vehicle: saline sonified): 101 % of control

Structure (SMILES): CC(C)(C)c1ccc(Oc2ccc([N+](=O)[O-])cc2[N+](=O)[O-])c(Br)c1
- T/C [6]: 96 % of control
- T/C (dose: 100.0 mg/kg/injection, schedule: Q04DX002 (ip), vehicle: Klucel (hydroxypropylcellulose) (HPC)): 104 % of control
- T/C [7]: 96 % of control
- T/C (dose: 200.0 mg/kg/injection, schedule: Q04DX002 (ip), vehicle: Klucel (hydroxypropylcellulose) (HPC)): 108 % of control
- T/C [8]: 96 % of control
- T/C (dose: 400.0 mg/kg/injection, schedule: Q04DX002 (ip), vehicle: Klucel (hydroxypropylcellulose) (HPC)): 111 % of control

Structure (SMILES): COc1c2occc2c(OC)c2c(=O)cc(/C=C/c3ccc4ccccc4n3)oc12
- T/C [9]: 95 % of control
- T/C [10]: 95 % of control
- T/C (dose: 400.0 mg/kg/injection, schedule: Q01DX001 (ip), vehicle: saline): 96 % of control

Structure (SMILES): Cc1cc(C)c([N+](=O)[O-])cc1N
- T/C (dose: 50.0 mg/kg/injection, schedule: Q01DX001 (ip), vehicle: Klucel (hydroxypropylcellulose) (HPC)): 101 % of control
- T/C [14]: 98 % of control
- T/C [15]: 93 % of control

Structure (SMILES): CCOC(=O)C1CSCN1 (stereo not given)
- T/C [11]: 104 % of control
- T/C [12]: 89 % of control

Structure (SMILES): C=C1C(=O)OC2/C=C(/C)C(OC(C)=O)CC(O)/C(C)=C\C(OC(=O)/C(C)=C\C)C12 (stereo not given)
- T/C (dose: 40.0 mg/kg/injection, schedule: Q01DX009 (ip), vehicle: carboxymethylcellulose (CMC)): 101 % of control
- T/C (dose: 60.0 mg/kg/injection, schedule: Q01DX009 (ip), vehicle: carboxymethylcellulose (CMC)): 104 % of control
- T/C (dose: 80.0 mg/kg/injection, schedule: Q01DX009 (ip), vehicle: carboxymethylcellulose (CMC)): 104 % of control
- T/C (dose: 100.0 mg/kg/injection, schedule: Q01DX009 (ip), vehicle: carboxymethylcellulose (CMC)): 98 % of control

Structure (SMILES): COc1ccc(C2OCC(c3ccccc3)O2)cc1 (stereo not given)
- T/C (dose: 222.0 mg/kg/injection, schedule: Q01DX Z (ip), vehicle: methylcellulose (MC)): 93 % of control
- T/C (dose: 500.0 mg/kg/injection, schedule: Q01DX Z (ip), vehicle: methylcellulose (MC)): 93 % of control

Structure (SMILES): CC(=O)Nc1cc(C(=O)Nc2ccc(C3=NCCN3)cc2)ccc1C(=O)Nc1ccc(C2=NCCN2)cc1
- T/C (dose: 7.5 mg/kg/injection, schedule: Q01DX Z (oral), vehicle: saline): 103 % of control
- T/C [3]: 271 % of control
- T/C [4]: 105 % of control
- T/C [5]: 104 % of control
- T/C (dose: 60.0 mg/kg/injection, schedule: Q01DX Z (oral), vehicle: saline): 105 % of control
- T/C (dose: 62.5 mg/kg/injection, schedule: Q## X009 (oral), vehicle: saline): 97 % of control
- T/C (dose: 75.0 mg/kg/injection, schedule: Q01DX Z (oral), vehicle: saline): 90 % of control
- T/C (dose: 125.0 mg/kg/injection, schedule: Q## X009 (oral), vehicle: saline): 97 % of control
- T/C (dose: 150.0 mg/kg/injection, schedule: Q01DX Z (oral), vehicle: saline): 86 % of control
- T/C (dose: 500.0 mg/kg/injection, schedule: Q## X009 (oral), vehicle: saline): 101 % of control

Structure (SMILES): CCCCCN(CCCCC)C(=S)[S-].CCCCCN(CCCCC)C(=S)[S-].[Zn]
- T/C (dose: 100.0 mg/kg/injection, schedule: Q04DX003 (ip), vehicle: carboxymethylcellulose (CMC)): 94 % of control
- T/C (dose: 200.0 mg/kg/injection, schedule: Q04DX003 (ip), vehicle: carboxymethylcellulose (CMC)): 100 % of control
- T/C (dose: 400.0 mg/kg/injection, schedule: Q04DX003 (ip), vehicle: carboxymethylcellulose (CMC)): 91 % of control

Structure (SMILES): CCCCCCCCCCCCOc1ccc(Sc2ccc([N+](=O)[O-])cc2)cc1
- T/C [14]: 95 % of control
- T/C [15]: 87 % of control
- T/C (dose: 400.0 mg/kg/injection, schedule: Q01DX001 (ip), vehicle: Klucel (hydroxypropylcellulose) (HPC)): 90 % of control

Structure (SMILES): C(C=C(c1ccccc1)c1ccccc1)=C(c1ccccc1)c1ccccc1
- T/C [1]: 97 % of control
- T/C [13]: 90 % of control
- T/C [2]: 92 % of control
